Where no end group is shown, it is not given here.
Tests used:
annexin 1 = assay: Induction of annexin 1 in BxPC-3 cells, Western blot of nuclear and cytoplasmic extracts; type: cell-based, human; conditions: for expression of annexin 1: 5 mM conventional ASA, 100 μM cortisone; for annexin 1 expression with conventional NSAIDs: 6 h, each at 1 mM
Method: The human pancreatic cancer cell line, BxPC-3, or the colon cancer cell line HT-29, both from ATCC (Manassas, Va.) were maintained and grown in RPMI 1640 or McCoy's 5A medium (Cellgro) supplemented with 10% fetal bovine serum (HyClone) and 1% penicillin/streptomycin (Cellgro) in a humidified incubator at 37° C. and 5% CO2.
The cell fractions were obtained as described by Andrews and Faller (N. C. Andrews and D. V. Faller, Nucleic Acids Res. 19:2499 (1991)) with modification. Briefly, the cells were pelleted after treatment and washed three times with PBS. The cell pellets were resuspended in ice cold buffer A (10 mM HEPES, pH 7.9, 10 mM KCl, 1.5 mM MgCI2, 0.5 mM DTT, 0.5 mM PMSF) with protease inhibitor cocktail (Sigma) and incubated on ice for 15 min with occasional mixing by gently tapping the tube. The cell lysates were centrifuged up to 5000 rpm for three times. The supernatants were collected as cytoplasmic extracts. Nuclear pellets were washed with buffer A and resuspended in buffer C (20 mM HEPES, pH 7.9, 450 mM NaCl, 1.5 mM MgCI2, 0.2 mM EDTA, 0.5 mM DTT, 0.5 mM PMSF, 25% Glycerol) with protease inhibitor cocktail (Sigma) and incubated on ice for 30 min with occasional mixing to extract nuclear proteins. Nuclear extracts were cleared by centrifugation (14,800 rpm for 10 min) and the supernatants were collected as nuclear extracts.
For Western blotting, the proteins from both cytoplasmic extracts and nuclear extracts were separated by SDS-polyacrylamide gel electrophoresis and transferred onto PVDF membranes (Millipore). The membranes were blocked in 5% nonfat dry milk-TBS-T (20 mM Tris-HCl, pH 7.5, 500 mM NaCl. 0.3% Tween 20) at room temperature (RT) for an hour and probed with anti-annexin 1, c-IAP-1, c-IAP-2, and TRAF-1 (Santa Cruz Biotechnology, Inc. CA), and anti-Bcl-2 antibodies (Cell Signaling Technology), in 5% nonfat dry milk-TBS-T at 4° C. overnight. The blots were washed three times with TBS-T for 5 min each wash and incubated with horseradish peroxidase-conjugated secondary antibody (Santa Cruz) in 5% nonfat dry milk-TBS-T at RT for an hour. After five washes with TBS-T, the blots were developed with the enhanced chemiluminescence system (ECL™ Western Blotting System, Amersham Biosciences) and exposed to x-ray film according to the manufacturer's instructions. Protein loading was normalized using anti-β-actin antibodies (Santa Cruz Biotechnology, Inc).

NF-κB [1] = biological target: T1, NF-κB (Homo sapiens, UniProt P19838+Q04206); assay: NF-κB activity ELISA (TransBinding NF-κB assay kit), BxPC-3 cells; type: cell-based; design: endogenous in cells; host or cells: BxPC-3; conditions: for NF-κB activity with peptides of annexin 1: BxPC-3 cells, 30 μM, 3 h
Method: (§1) NF-κB activity was measured in these cells using the TransBinding NF-κB assay kit and following the instructions of the manufacturer (Panomics). Briefly, nuclear extracts obtained as described above, were incubated for 30 min in an ELISA plate coated with NF-κB consensus DNA sequence to which p50 protein can bind. After binding, antibody against p50 was added and incubated for 1 hour, followed by HRP-conjugated antibody for 1 hour. Afterwards, luminol/enhancer solution and stable peroxide solution were added and chemoluminescence was detected using a luminometer (Bio-Rad).

[2] = cortisol=1; cited from earlier work
[3] = test system: SW480 human colon cancer cells; assay: Apoptosis, Cell Death Detection ELISA, SW480 cells; type: cell-based
Method: Apoptosis was determined using the Cell Death Detection ELISA^PLUS assay kit according to the manufacturer's protocol (Roche, Indianapolis, Ind.). Briefly, the cells were treated with either NO-ASA or Dex for 3 h. Cells were harvested and washed three times with PBS. The cell pellet was resuspended with lysis buffer and incubated for 30 min at RT. Cell […] at 200×g for 10 min. The ELISA assay was performed using 20 μl cell lysate and 80 μl Immunoreagent (containing 72 μl Incubation Buffer, 4 μl Anti-histone-biotin Solution, and 4 μl Anti-DNA-POD Solution) per micro-plate well. The micro-plate was covered with an adhesive foil and incubated on a shaker under gentle shaking at 200 rpm for 2 h at RT. The solution in each well was removed thoroughly by tapping and the pellets were rinsed three times with 200 μl Incubation Buffer. […] The absorbance was measured at 405 nm using the SpectraMax micro-plate reader (Molecular Devices, Sunnyvale).
BxPC-3 or SW480 cells were treated with 30 μM of each of the peptides of annexin 1 for 3 h. NF-κB activity and apoptosis were measured in whole cell lysates using an ELISA assay as described in EXAMPLES 2 and 4. […]

SW480 tumor xenografts = assay: SW480 human colon cancer xenograft in nude mice; type: in vivo, BALB/c nude mice; conditions: i.p. 40 μg once daily
Method: Female 6-week-old BALB/c nude mice were obtained from The Jackson Laboratory (Bar Harbor, Me.). The animals were housed in a climate- and light-controlled room. Food and water were allowed ad libitum. The SW480 human colon cancer cell line was used to establish xenografts in nude mice. 2×10^6 cells in 100 μl of PBS were injected subcutaneously (s.c.) into the upper portion of the left hind limb of the mice, where they grew as solid tumors. The size of the tumor was measured two times per week using a Venier caliper. The tumor volume was determined using the formula V=L×W(L+W/2)×0.56.
On the 7th day after inoculation, when the tumor size reached an average 240 mm^3, 18 mice were treated with QW-3 administered by i.p. injection of at a dose of 40 μg once daily. The control group (n=18) was administered the vehicle alone. The mice were sacrificed on day 12, and tumors were resected and stored in liquid nitrogen and formalin until further analysis.
Immunohistochemistry was performed on paraffin sections of the tumors. All sections were incubated at 95-100° C. in WCAP reagent (Surgipath) for 30 min, washed and then incubated in 10:1 Methanol:H2O2 for 10 min. Sections were then incubated in rabbit polyclonal PCNA (Santa Cruz, Calif.) or antibody detecting NF-κB activation (Chemicon) for 1 h after which immunoreactivity was detected with an Envision assay kit and DAB reagent (DakoCytomation). All sections were counterstained with haematoxylin and mounted. Negative controls included a non-specific antibody.

NF-κB [4] = biological target: T1, NF-κB; assay: NF-κB activity ELISA, SW480 cells; type: cell-based; design: endogenous in cells; host or cells: SW480
Method: as §1, with “In the same manner as for NO-ASA, BxPC-3 cells were treated for 6 h with different corticosteroid inflammatory drugs, each at 4 μM, and tested for their ability to induce annexin 1. […] NF-κB activity” for “NF-κB activity”
BxPC-3 or SW480 cells were treated with 30 μM of each of the peptides of annexin 1 for 3 h. NF-κB activity and apoptosis were measured in whole cell lysates using an ELISA assay as described in EXAMPLES 2 and 4. […] These peptides are Ac-Gln-Ala-Trp, as set forth in SEQ ID NO:1, the peptide Ac-Phe-Gln-Ala-Tip, as set forth in SEQ ID NO:2 and the peptide Ac-Phe-Leu-Lys-Gln-Ala-Trp, as set forth in SEQ ID NO:3. Other depicted acetylated peptides are Ac-Phe-Leu-Lys (SEQ ID NO:14), Ac-Lys-Gln-Ala-Trp (SEQ ID NO:15), and Ac-Val-Ser-Glu-Lys-Gln-Ala-Trp (SEQ ID NO:16).

T1 sequence (Q04206 whole entry): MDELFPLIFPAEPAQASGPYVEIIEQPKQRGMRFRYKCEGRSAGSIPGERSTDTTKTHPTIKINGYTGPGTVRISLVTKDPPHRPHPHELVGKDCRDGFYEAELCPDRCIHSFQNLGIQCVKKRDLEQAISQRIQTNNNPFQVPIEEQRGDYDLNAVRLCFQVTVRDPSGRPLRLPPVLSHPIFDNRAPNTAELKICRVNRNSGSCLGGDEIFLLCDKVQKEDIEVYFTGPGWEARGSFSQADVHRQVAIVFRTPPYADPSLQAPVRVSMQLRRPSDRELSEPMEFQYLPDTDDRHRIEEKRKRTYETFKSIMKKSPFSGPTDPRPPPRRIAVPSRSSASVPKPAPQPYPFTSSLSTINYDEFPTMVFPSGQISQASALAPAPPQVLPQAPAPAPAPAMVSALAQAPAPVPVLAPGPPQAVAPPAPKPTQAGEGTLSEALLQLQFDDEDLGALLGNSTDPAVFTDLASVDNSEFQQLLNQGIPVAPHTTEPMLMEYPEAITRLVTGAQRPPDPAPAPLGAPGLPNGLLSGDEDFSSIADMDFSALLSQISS
T1 sequence (P19838 1-433 limits assumed): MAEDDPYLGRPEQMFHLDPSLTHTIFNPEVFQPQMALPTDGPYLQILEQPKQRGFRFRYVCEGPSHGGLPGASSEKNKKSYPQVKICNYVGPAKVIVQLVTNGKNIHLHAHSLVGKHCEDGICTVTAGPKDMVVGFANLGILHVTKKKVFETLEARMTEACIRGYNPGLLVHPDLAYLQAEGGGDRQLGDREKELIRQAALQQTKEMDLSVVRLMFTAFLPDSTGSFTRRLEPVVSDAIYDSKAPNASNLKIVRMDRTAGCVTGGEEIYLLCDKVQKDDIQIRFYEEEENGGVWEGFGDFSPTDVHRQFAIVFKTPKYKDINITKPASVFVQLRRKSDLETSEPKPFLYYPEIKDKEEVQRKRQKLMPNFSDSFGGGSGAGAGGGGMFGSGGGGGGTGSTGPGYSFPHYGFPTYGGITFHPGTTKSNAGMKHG

Molecule | annexin 1 expression with conventional NSAIDs (annexin 1) | NF-κB activity with peptides of annexin 1 (NF-κB [1]) | other results
CC(=O)Oc1ccccc1C(=O)O [conventional ASA, aspirin] | no effect | – | expression of annexin 1 (annexin 1): failed to induce; activity of NF-κB with weak anti-inflammatory drugs (NF-κB [1]; cells and concentration not given): do not inhibit
C[C@]12CCC(=O)C=C1CC[C@@H]1[C@@H]2[C@@H](O)C[C@@]2(C)[C@H]1CC[C@]2(O)C(=O)CO [cortisol] | – | – | relative anti-inflammatory potency [2]: 1
C[C@]12CCC(=O)C=C1CC[C@@H]1[C@@H]2C(=O)C[C@@]2(C)[C@H]1CC[C@]2(O)C(=O)CO [cortisone] | – | – | expression of annexin 1 (annexin 1): failed to induce
CC(C(=O)O)c1ccc(-c2ccccc2)c(F)c1 (stereo not drawn) [flurbiprofen] | no effect | – | –
CC(C)Cc1ccc(C(C)C(=O)O)cc1 (stereo not drawn) [ibuprofen] | no effect | – | –
COc1ccc2c(c1)c(CC(=O)O)c(C)n2C(=O)c1ccc(Cl)cc1 [indomethacin] | no effect | – | –
CN1C(C(=O)Nc2ccccn2)=C(O)c2ccccc2S1(=O)=O [piroxicam] | no effect | – | –
O=C(O)c1ccccc1O [salicylic acid] | no effect | – | –
CC1=C(CC(=O)O)c2cc(F)ccc2/C1=C\c1ccc([S+](C)[O-])cc1 (stereo not drawn) [sulindac] | no effect | – | –
C[C@]12C=CC(=O)C=C1CC[C@H]1[C@@H]3C[C@@H](O)[C@](O)(C(=O)CO)[C@@]3(C)C[C@H](O)[C@@]12F [triamincinolone] | – | – | relative anti-inflammatory potency [2]: 5
Ac-AMVSEFKQAWFIENEEQQYVQTVK [Ac2-26] | – | inhibited NF-κB activity | –
Ac-Ala-Met-Val-Ser-Glu-Phe-Leu-Lys-Gln-Ala-Trp (Ac-AMVSEFLKQAW) [Ac2-12, commercial peptide of annexin 1] | – | inhibited NF-κB activity | –
Ac-Gln-Ala-Trp [QW-3] | – | inhibited NF-κB activity | apoptosis [3]: enhanced SW480 cell apoptosis; blood levels of IL-6 (SW480 tumor xenografts): decreased levels of IL-6; blood levels of IL-10 (SW480 tumor xenografts): increased the blood levels of IL-10; tumor growth (SW480 tumor xenografts): suppressed tumor growth; NF-κB activity in tumors (SW480 tumor xenografts; tumor sections): inhibited NF-κB activity; cell proliferation by expression of PCNA (immunohistochemistry) (SW480 tumor xenografts; tumor sections): inhibited cell proliferation; NF-κB activity (NF-κB [4]): inhibited NF-κB activity in a concentration-dependent manner
Ac-Phe-Gln-Ala-Trp (Ac-FQAW) [Ac-Phe-Gln-Ala-Tip] | – | inhibited NF-κB activity | –
Ac-Phe-Leu-Lys-Gln-Ala-Trp (Ac-FLKQAW) | – | inhibited NF-κB activity | –
